{
  "source": "patent US7381698B2",
  "about": "“Methods for treatment of acute pancreatitis” (ChiRhoClin, Inc., priority 2003, dated 2008)",
  "key": {"patients undergoing ERCP": {"test_system": "patients undergoing ERCP", "test": "Return to pre-ERCP activity levels and return to work in ERCP patients", "type": "in vivo, human", "from_the_text": "Additional secondary efficacy variables assessed were return to baseline (pre-ERCP levels of activity) and the time in days to return of pre-ERCP activity levels. There was a small difference in the percentage of patients reporting return to baseline activity within the follow-up period (2 to 4 days post-ERCP) favoring the placebo group (p=0.0230) (49.78% vs. 42.09%). Interims of the mean number of days required to achieve pre-ERCP activity levels, was 0.6 (±1.0) for the sPS group and 0.7 (±0.9) for the placebo group. An attempt was made to obtain information on return to work. Relatively few data points were able to be collected, however, because a large percentage of patients were not working pre-ERCP (retired, too ill, etc.) among the 185 patients (95 in the sPS group and 90 in the placebo group) providing relevant responses for this variable, 46.32% of sPS patients and 50.00% of placebo patients reported returning to work within the follow-up period."}, "[1]": {"test_system": "post-ERCP pancreatitis in patients undergoing ERCP", "test": "Randomized, double-blind, placebo controlled study in ERCP patients: incidence and severity of post-ERCP pancreatitis", "type": "in vivo, human", "from_the_text": "Pancreatitis is the most common medically significant complication following Endoscopic Retrograde Cholangio-Pancreatography ([…]) procedures. The symptoms and pathophysiology of post-ERCP pancreatitis and acute pancreatitis are identical, and patients at risk for postERCP pancreatitis or suffering early signs of the condition provide good data for evaluation of therapies for acute pancreatitis. An evaluation of the clinical efficacy of dosages of secretin to treat or prevent the onset of pancreatitis in patients undergoing ERCP is described below.\nA total of 979 ERCP patients were randomized, received study drug and were evaluable for efficacy. The demographic profiles of the patients who were randomized and received treatment with study drug by treatment group are summarized in Table 1.\nThe primary efficacy variable was the overall incidence of post-ERCP pancreatitis.\nThe difference in the incidence of post-ERCP pancreatitis between the two treatment groups in favor of the sPS treated patients was highly significant. The p-value of 0.0161 was sufficient to allow the study to be discontinued on the basis of the planned interim analysis of approximately 1,000 evaluable patients. The severity of the cases of post-ERCP pancreatitis, which did occur in each treatment group is depicted in Table 4 below.\nThe frequency of post-ERCP pancreatitis was evaluated in numerous patient sub-populations defined by the types of procedures performed during the ERCP."}, "[2]": {"conditions": "number of cases (% of 44 pancreatitis cases), N = 488/44"}},
  "note": "Where no end group is shown, it is not given here.",
  "data": [
    {"substance": "synthetic porcine secretin (HSDGTFTSELSRLRDSARLQRLLQGLV; not fully specified; ends and bridges not checked; UniProt P63298 33-59, looked up) [SPS, Study drug; abbreviation not defined]", "values": [
      {"measurement": "mean number of days required to achieve pre-ERCP activity levels", "setting": "patients undergoing ERCP; mean (±SD)", "value": "0.6 (±1.0) days"},
      {"measurement": "patients reporting returning to work", "setting": "patients undergoing ERCP; within the follow-up period, 95 patients in the sPS group, not significant", "value": 46.32, "unit": "%"},
      {"measurement": "Post-ERCP Pancreatitis Severity Rating (%): Severe", "setting": "[1]; [2]", "value": "1 (2.27) %"},
      {"measurement": "Post-ERCP Pancreatitis Severity Rating (%): Unknown", "setting": "[1]; [2]", "value": "7 (15.91) %"},
      {"measurement": "Post-ERCP Pancreatitis Severity Rating (%): Total", "setting": "[1]; number of cases (% of 44 pancreatitis cases), N = 488/44, overall p 0.6278", "value": "44 (100.0) %"},
      {"measurement": "Post-ERCP Pancreatitis Severity Rating (%): Moderate", "setting": "[1]; number of cases (% of 44 pancreatitis cases), N = 488/44, p 0.117", "value": "9 (20.45) %"},
      {"measurement": "Post-ERCP Pancreatitis Severity Rating (%): Minimal", "setting": "[1]; number of cases (% of 44 pancreatitis cases), N = 488/44, p 0.289", "value": "13 (29.55) %"},
      {"measurement": "Post-ERCP Pancreatitis Severity Rating (%): Mild", "setting": "[1]; number of cases (% of 44 pancreatitis cases), N = 488/44, p 0.590", "value": "14 (31.82) %"},
      {"measurement": "Overall Incidence of Post-ERCP Pancreatitis, No (%)", "setting": "[1]; number of patients (%), N = 488", "value": "444 (90.98) %"},
      {"measurement": "Overall Incidence of Post-ERCP Pancreatitis, Yes (%)", "setting": "[1]; number of patients (%), N = 488, p 0.0161 vs placebo, Fisher Exact Test", "value": "44 (9.02) %"},
      {"measurement": "Incidence of Post-ERCP Pancreatitis, No (%)", "setting": "[1]; sub-population Cannulation of CBD, N = 361", "value": "334 (92.52) %"},
      {"measurement": "Incidence of Post-ERCP Pancreatitis, Yes (%)", "setting": "[1]; sub-population Cannulation of CBD, N = 361, p 0.0010", "value": "27 (7.48) %"},
      {"measurement": "Incidence of Post-ERCP Pancreatitis, No (%)", "setting": "[1]; sub-population Cannulation of Pancreatic Duct, N = 220", "value": "190 (86.36) %"},
      {"measurement": "Incidence of Post-ERCP Pancreatitis, Yes (%)", "setting": "[1]; sub-population Cannulation of Pancreatic Duct, N = 220, p 0.1237", "value": "30 (13.64) %"},
      {"measurement": "Incidence of Post-ERCP Pancreatitis, No (%)", "setting": "[1]; sub-population Manometry of CBD, N = 19", "value": "15 (78.95) %"},
      {"measurement": "Incidence of Post-ERCP Pancreatitis, Yes (%)", "setting": "[1]; sub-population Manometry of CBD, N = 19, p 0.0819", "value": "4 (21.05) %"},
      {"measurement": "Incidence of Post-ERCP Pancreatitis, Yes (%)", "setting": "[1]; sub-population Manometry of CBD, N = 19, p 0.0819, listed as sPS", "value": 21.05, "unit": "%"},
      {"measurement": "Incidence of Post-ERCP Pancreatitis, No (%)", "setting": "[1]; sub-population Manometry of Pancreatic Duct, N = 11", "value": "6 (54.58) %"},
      {"measurement": "Incidence of Post-ERCP Pancreatitis, Yes (%)", "setting": "[1]; sub-population Manometry of Pancreatic Duct, N = 11, p 0.3665", "value": "5 (45.45) %"},
      {"measurement": "Incidence of Post-ERCP Pancreatitis, No (%)", "setting": "[1]; sub-population Sphincterotomy of CBD, N = 140", "value": "133 (95.00) %"},
      {"measurement": "Incidence of Post-ERCP Pancreatitis, Yes (%)", "setting": "[1]; sub-population Sphincterotomy of CBD, N = 140, p 0.0001", "value": "7 (5.00) %"},
      {"measurement": "Incidence of Post-ERCP Pancreatitis, No (%)", "setting": "[1]; sub-population Sphincterotomy of Pancreatic Duct, N = 26", "value": "14 (57.85) %"},
      {"measurement": "Incidence of Post-ERCP Pancreatitis, Yes (%)", "setting": "[1]; sub-population Sphincterotomy of Pancreatic Duct, N = 26, p 0.1666", "value": "12 (46.15) %"},
      {"measurement": "Incidence of Post-ERCP Pancreatitis, No (%)", "setting": "[1]; sub-population Stent Insertion into CBD, N = 108", "value": "105 (97.22) %"},
      {"measurement": "Incidence of Post-ERCP Pancreatitis, Yes (%)", "setting": "[1]; sub-population Stent Insertion into CBD, N = 108, p 0.0856", "value": "3 (2.78) %"},
      {"measurement": "Incidence of Post-ERCP Pancreatitis, Yes (%)", "setting": "[1]; sub-population Stent Insertion into CBD, N = 108, p 0.0856, listed as sPS", "value": 2.78, "unit": "%"},
      {"measurement": "Incidence of Post-ERCP Pancreatitis, No (%)", "setting": "[1]; sub-population Stent Insertion into Pancreatic Duct, N = 23", "value": "18 (78.26) %"},
      {"measurement": "Incidence of Post-ERCP Pancreatitis, Yes (%)", "setting": "[1]; sub-population Stent Insertion into Pancreatic Duct, N = 23, p 1.0000", "value": "5 (21.74) %"},
      {"measurement": "Incidence of Post-ERCP Pancreatitis, Yes (%)", "setting": "[1]; sub-population Stent Insertion into Pancreatic Duct, N = 23, p 1.0000, listed as sPS", "value": 21.7, "unit": "%"},
      {"measurement": "Incidence of Post-ERCP Pancreatitis, No (%)", "setting": "[1]; sub-population Stent Removal from CBD, N = 58", "value": "57 (98.28) %"},
      {"measurement": "Incidence of Post-ERCP Pancreatitis, Yes (%)", "setting": "[1]; sub-population Stent Removal from CBD, N = 58, p 0.6185", "value": "1 (1.72) %"},
      {"measurement": "Incidence of Post-ERCP Pancreatitis, No (%)", "setting": "[1]; sub-population Stent Removal from Pancreatic Duct, N = 17", "value": "15 (88.24) %"},
      {"measurement": "Incidence of Post-ERCP Pancreatitis, Yes (%)", "setting": "[1]; sub-population Stent Removal from Pancreatic Duct, N = 17, p 1.0000", "value": "2 (11.76) %"},
      {"measurement": "Incidence of Post-ERCP Pancreatitis, No (%)", "setting": "[1]; sub-population Stone Extraction (Balloon), N = 55", "value": "51 (92.73) %"},
      {"measurement": "Incidence of Post-ERCP Pancreatitis, Yes (%)", "setting": "[1]; sub-population Stone Extraction (Balloon), N = 55, p 1.0000", "value": "4 (7.27) %"},
      {"measurement": "Incidence of Post-ERCP Pancreatitis, No (%)", "setting": "[1]; sub-population Stone Extraction (Basket), N = 35", "value": "34 (97.14) %"},
      {"measurement": "Incidence of Post-ERCP Pancreatitis, Yes (%)", "setting": "[1]; sub-population Stone Extraction (Basket), N = 35, p 0.2298", "value": "1 (2.86) %"}
    ]}
  ]
}
